Measurements reported in PMC9399405, “CD8 T cell function and cross-reactivity explored by stepwise increased peptide-HLA versus TCR affinity” (Frontiers in Immunology, 2022).

Tested on: HLA-A2
Experiment: Blue peptide (Cy5-labeled HBVc) kinetic and isotherm determination
Type: binding, human
Description: In short, for kon measurements on T2 (HLA-A2^pos) and C1R-A3 (HLA-A2^neg) cells, baseline Cy5 cell auto-fluorescence was recorded for 30s with an LSRII instrument. Titrated amounts of Cy5-labeled HBVc blue peptide (from 1 pM to 1 uM final concentration) were then added to the tube and association of the blue peptide to HLA-A2 was recorded for 5 minutes. For koff dissociation assays, 2x10^6 HLA-A2^pos (T2) and HLA-A2^neg (C1R-A3) cells were stained with 1 μM blue peptide and incubated for 1h in the dark. After washing, baseline Cy5 staining was recorded for 30s, before adding excess of FACS buffer and recording fluorescence intensity (gMFI) for 1h under temperature control. Additionally, isotherm titration experiments were performed to validate the value of the blue peptide dissociation equilibrium constant KD. Cells were stained with titrated amounts of the blue peptide (from 1 pM to 1 uM) for 1h at 4°C or 37°C. After washing, Cy5 gMFI was recorded on an LSRII instrument to determine concentration-associated maximal staining at equilibrium conditions (n = 5). All kinetic and isotherm analyses were done with the corresponding best fit equations using Prism software (GraphPad, v.9.1.1) and correction of non-specific staining values found on control HLA-A2^neg cells (nonlinear regression for kon = association kinetics - one conc. of ligand, for koff = dissociation/one phase exponential decay and for KD = one site - total and nonspecific binding).

[1] = HLA-A2pos and HLA-A2neg cells in parallel, flow cytometry

FLPSDC*-(Cy5)-FPSV [blue peptide]
peptide:HLA association kon [1]: 23000 M⁻¹ s⁻¹ | peptide:HLA dissociation koff [1]: 0.0012 s⁻¹ | Kd (T2 (HLA-A2pos) vs C1R-A3 (HLA-A2neg) cells, isotherm titration 1 pM to 1 uM, 1h, n = 5, read-out: equilibrium dissociation constant KD for HLA-A2): 0.0526 µM
